Assay results reported in patent US20080051387A1, “TETRAHYDROPYRIDO[3,4-D]PYRIMIDINES AND RELATED ANALOGUES” (priority 2006, published 2008).

Each molecule was assayed against T1, chimeric human H3 receptor (Homo sapiens, UniProt Q9Y5N1) (assay: Chimeric human H3 receptor screening GTP binding assay (inhibition of histamine-stimulated GTP-gamma35S binding, Example 8)). Details: 1 h; assay of Example 8; symbol "!" in column headed Ki; read-out: percent inhibition of agonist-induced GTP-gammaS binding to H3.
T1 construct: rat Galpha-i2 (Gnai2, rat); made in house; host or cells: Sf9 insect cells (baculovirus); P2 membranes
T1 sequence (Q9Y5N1 with tags, fused parts or gaps): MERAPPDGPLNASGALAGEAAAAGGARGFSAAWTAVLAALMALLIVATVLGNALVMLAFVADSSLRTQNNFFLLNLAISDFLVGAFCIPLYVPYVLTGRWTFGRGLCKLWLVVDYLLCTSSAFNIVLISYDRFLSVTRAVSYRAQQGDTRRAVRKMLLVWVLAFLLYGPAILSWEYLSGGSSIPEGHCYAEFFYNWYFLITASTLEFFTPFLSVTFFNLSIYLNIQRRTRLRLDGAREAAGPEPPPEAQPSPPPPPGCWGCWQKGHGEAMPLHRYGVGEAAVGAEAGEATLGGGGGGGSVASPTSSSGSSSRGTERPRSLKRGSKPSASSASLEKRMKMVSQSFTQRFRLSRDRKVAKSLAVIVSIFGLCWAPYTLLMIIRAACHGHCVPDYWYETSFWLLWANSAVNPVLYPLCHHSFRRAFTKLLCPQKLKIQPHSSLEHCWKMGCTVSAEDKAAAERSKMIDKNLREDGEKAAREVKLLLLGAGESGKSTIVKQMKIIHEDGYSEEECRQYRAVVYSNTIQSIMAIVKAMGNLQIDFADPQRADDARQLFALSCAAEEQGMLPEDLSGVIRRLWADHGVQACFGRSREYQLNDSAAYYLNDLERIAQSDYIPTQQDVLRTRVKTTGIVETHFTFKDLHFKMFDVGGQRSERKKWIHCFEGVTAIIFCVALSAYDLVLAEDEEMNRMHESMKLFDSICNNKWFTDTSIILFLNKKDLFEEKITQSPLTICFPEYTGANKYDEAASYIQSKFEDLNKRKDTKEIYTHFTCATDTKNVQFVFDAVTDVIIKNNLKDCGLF
Type: biochemical
In short: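 Sf9 membranes co-expressing chimeric human H3 receptor and heterotrimeric G-protein (35 μg protein) incubated 60 min at room temperature with 4 μM compound, 1 μM histamine and 125 pM GTP-gamma35S in pH 7.4 buffer with 10 μM GDP. Filter-bound radioactivity, nonspecific (10 μM GTP-gammaS) subtracted, reported as % inhibition of histamine signal.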

| SMILES | inhibition at 4 µM [%] |
| --- | --- |
| c1ccc2c(CN3CCc4cnc(N5CCN(C6CCC6)CC5)nc4CC3)ccnc2c1 [Compound 236, 2-(4-cyclobutylpiperazin-1-yl)-7-(quinolin-4-ylmethyl)-6,7,8,9-tetrahydro-5H-pyrimido[4,5-d]azepine] | ≥ 90 |
| c1ccc2ncc(CN3CCc4cnc(N5CCN(C6CCC6)CC5)nc4CC3)cc2c1 [Compound 237, 2-(4-cyclobutylpiperazin-1-yl)-7-(quinolin-3-ylmethyl)-6,7,8,9-tetrahydro-5H-pyrimido[4,5-d]azepine] | ≥ 90 |
| Cc1cccc(CN2CCc3cnc(N4CCN(C5CCC5)CC4)nc3CC2)n1 [Compound 238, 2-(4-cyclobutylpiperazin-1-yl)-7-[(6-methylpyridin-2-yl)methyl]-6,7,8,9-tetrahydro-5H-pyrimido[4,5-d]azepine] | ≥ 90 |
| c1cncc(CN2CCc3cnc(N4CCN(C5CCC5)CC4)nc3CC2)c1 [Compound 239, 2-(4-cyclobutylpiperazin-1-yl)-7-(pyridin-3-ylmethyl)-6,7,8,9-tetrahydro-5H-pyrimido[4,5-d]azepine] | ≥ 90 |
| c1cc(N2CCOCC2)ncc1CN1CCc2cnc(N3CCN(C4CCC4)CC3)nc2CC1 [Compound 240, 2-(4-cyclobutylpiperazin-1-yl)-7-[(6-morpholin-4-ylpyridin-3-yl)methyl]-6,7,8,9-tetrahydro-5H-pyrimido[4,5-d]azepine] | ≥ 90 |
| Cc1cc(CN2CCc3cnc(N4CCN(C5CCC5)CC4)nc3CC2)n(C)n1 [Compound 241, 2-(4-cyclobutylpiperazin-1-yl)-7-[(1,3-dimethyl-1H-pyrazol-5-yl)methyl]-6,7,8,9-tetrahydro-5H-pyrimido[4,5-d]azepine] | ≥ 90 |
| COc1ccccc1CN1CCc2cnc(N3CCN(C4CCC4)CC3)nc2CC1 [Compound 242, 2-(4-cyclobutylpiperazin-1-yl)-7-(2-methoxybenzyl)-6,7,8,9-tetrahydro-5H-pyrimido[4,5-d]azepine] | ≥ 90 |
| COc1ccc(CN2CCc3cnc(N4CCN(C5CCC5)CC4)nc3CC2)c(OC)c1 [Compound 243, 2-(4-cyclobutylpiperazin-1-yl)-7-(2,4-dimethoxybenzyl)-6,7,8,9-tetrahydro-5H-pyrimido[4,5-d]azepine] | ≥ 90 |
| CC(C)c1ccc(CN2CCc3cnc(N4CCN(C5CCC5)CC4)nc3CC2)cc1 [Compound 244, 2-(4-cyclobutylpiperazin-1-yl)-7-(4-isopropylbenzyl)-6,7,8,9-tetrahydro-5H-pyrimido[4,5-d]azepine] | ≥ 90 |
| CCN1CCc2cnc(N3CCN(C4CCC4)CC3)nc2CC1 [Compound 245, 2-(4-cyclobutylpiperazin-1-yl)-7-ethyl-6,7,8,9-tetrahydro-5H-pyrimido[4,5-d]azepine] | ≥ 90 |
| CC(C)CCN1CCc2cnc(N3CCN(C4CCC4)CC3)nc2CC1 [Compound 246, 2-(4-cyclobutylpiperazin-1-yl)-7-(3-methylbutyl)-6,7,8,9-tetrahydro-5H-pyrimido[4,5-d]azepine] | ≥ 90 |
| CCCN1CCc2cnc(N3CCN(C4CCC4)CC3)nc2CC1 [Compound 247, 2-(4-cyclobutylpiperazin-1-yl)-7-propyl-6,7,8,9-tetrahydro-5H-pyrimido[4,5-d]azepine] | ≥ 90 |
| CCCCN1CCc2cnc(N3CCN(C4CCC4)CC3)nc2CC1 [Compound 248, 7-butyl-2-(4-cyclobutylpiperazin-1-yl)-6,7,8,9-tetrahydro-5H-pyrimido[4,5-d]azepine] | ≥ 90 |
| CCCCCN1CCc2cnc(N3CCN(C4CCC4)CC3)nc2CC1 [Compound 249, 2-(4-cyclobutylpiperazin-1-yl)-7-pentyl-6,7,8,9-tetrahydro-5H-pyrimido[4,5-d]azepine] | ≥ 90 |
| CCCCCCN1CCc2cnc(N3CCN(C4CCC4)CC3)nc2CC1 [Compound 250, 2-(4-cyclobutylpiperazin-1-yl)-7-hexyl-6,7,8,9-tetrahydro-5H-pyrimido[4,5-d]azepine] | ≥ 90 |
| CC(C)CN1CCc2cnc(N3CCN(C4CCC4)CC3)nc2CC1 [Compound 251, 2-(4-cyclobutylpiperazin-1-yl)-7-isobutyl-6,7,8,9-tetrahydro-5H-pyrimido[4,5-d]azepine] | ≥ 90 |
| CCC(C)CN1CCc2cnc(N3CCN(C4CCC4)CC3)nc2CC1 (stereo not drawn) [Compound 252, 2-(4-cyclobutylpiperazin-1-yl)-7-(2-methylbutyl)-6,7,8,9-tetrahydro-5H-pyrimido[4,5-d]azepine] | ≥ 90 |
| CCC(CC)CN1CCc2cnc(N3CCN(C4CCC4)CC3)nc2CC1 [Compound 253, 2-(4-cyclobutylpiperazin-1-yl)-7-(2-ethylbutyl)-6,7,8,9-tetrahydro-5H-pyrimido[4,5-d]azepine] | ≥ 90 |

| SMILES | inhibition at 4 µM [%] |
| --- | --- |
| c1nc(N2CCN(C3CCC3)CC2)nc2c1CCN(CC1CC1)CC2 [Compound 254, 2-(4-cyclobutylpiperazin-1-yl)-7-(cyclopropylmethyl)-6,7,8,9-tetrahydro-5H-pyrimido[4,5-d]azepine] | ≥ 90 |
| CCCC(C)CN1CCc2cnc(N3CCN(C4CCC4)CC3)nc2CC1 (stereo not drawn) [Compound 255, 2-(4-cyclobutylpiperazin-1-yl)-7-(2-methylpentyl)-6,7,8,9-tetrahydro-5H-pyrimido[4,5-d]azepine] | ≥ 90 |
| c1nc(N2CCN(C3CCC3)CC2)nc2c1CCN(CC1CCOC1)CC2 (stereo not drawn) [Compound 256, 2-(4-cyclobutylpiperazin-1-yl)-7-(tetrahydrofuran-3-ylmethyl)-6,7,8,9-tetrahydro-5H-pyrimido[4,5-d]azepine] | ≥ 90 |
| Cc1ccc(CN2CCc3cnc(N4CCN(C5CCC5)CC4)nc3CC2)cc1C [Compound 257, 2-(4-cyclobutylpiperazin-1-yl)-7-(3,4-dimethylbenzyl)-6,7,8,9-tetrahydro-5H-pyrimido[4,5-d]azepine] | ≥ 90 |
| c1cc2c(cc1CN1CCc3cnc(N4CCN(C5CCC5)CC4)nc3CC1)OCCO2 [Compound 258, 2-(4-cyclobutylpiperazin-1-yl)-7-(2,3-dihydro-1,4-benzodioxin-6-ylmethyl)-6,7,8,9-tetrahydro-5H-pyrimido[4,5-d]azepine] | ≥ 90 |
| c1ccc2nc(CN3CCc4cnc(N5CCN(C6CCC6)CC5)nc4CC3)ccc2c1 [Compound 259, 2-(4-cyclobutylpiperazin-1-yl)-7-(quinolin-2-ylmethyl)-6,7,8,9-tetrahydro-5H-pyrimido[4,5-d]azepine] | ≥ 90 |
| COc1cccc(CN2CCc3cnc(N4CCN(C5CCC5)CC4)nc3CC2)c1OC [Compound 260, 2-(4-cyclobutylpiperazin-1-yl)-7-(2,3-dimethoxybenzyl)-6,7,8,9-tetrahydro-5H-pyrimido[4,5-d]azepine] | ≥ 90 |
| COc1ccc(OC)c(CN2CCc3cnc(N4CCN(C5CCC5)CC4)nc3CC2)c1 [Compound 261, 2-(4-cyclobutylpiperazin-1-yl)-7-(2,5-dimethoxybenzyl)-6,7,8,9-tetrahydro-5H-pyrimido[4,5-d]azepine] | ≥ 90 |
| CCn1cncc1CN1CCc2cnc(N3CCN(C4CCC4)CC3)nc2CC1 [Compound 262, 2-(4-cyclobutylpiperazin-1-yl)-7-[(1-ethyl-1H-imidazol-5-yl)methyl]-6,7,8,9-tetrahydro-5H-pyrimido[4,5-d]azepine] | ≥ 90 |
| c1cc(N2CCCC2)ncc1CN1CCc2cnc(N3CCN(C4CCC4)CC3)nc2CC1 [Compound 263, 2-(4-cyclobutylpiperazin-1-yl)-7-[(6-pyrrolidin-1-ylpyridin-3-yl)methyl]-6,7,8,9-tetrahydro-5H-pyrimido[4,5-d]azepine] | ≥ 90 |
| Cc1c(F)cccc1CN1CCc2cnc(N3CCN(C4CCC4)CC3)nc2CC1 [Compound 264, 2-(4-cyclobutylpiperazin-1-yl)-7-(3-fluoro-2-methylbenzyl)-6,7,8,9-tetrahydro-5H-pyrimido[4,5-d]azepine] | ≥ 90 |
| Clc1ccccc1CN1CCc2cnc(N3CCN(C4CCC4)CC3)nc2CC1 [Compound 265, 7-(2-chlorobenzyl)-2-(4-cyclobutylpiperazin-1-yl)-6,7,8,9-tetrahydro-5H-pyrimido[4,5-d]azepine] | ≥ 90 |
| Clc1ccc(CN2CCc3cnc(N4CCN(C5CCC5)CC4)nc3CC2)c(Cl)c1 [Compound 266, 2-(4-cyclobutylpiperazin-1-yl)-7-(2,4-dichlorobenzyl)-6,7,8,9-tetrahydro-5H-pyrimido[4,5-d]azepine] | ≥ 90 |
| c1cc(N2CCCC2)ccc1CN1CCc2cnc(N3CCN(C4CCC4)CC3)nc2CC1 [Compound 267, 2-(4-cyclobutylpiperazin-1-yl)-7-(4-pyrrolidin-1-ylbenzyl)-6,7,8,9-tetrahydro-5H-pyrimido[4,5-d]azepine] | ≥ 90 |
| N#Cc1ccc(C(=O)N2CCc3cnc(N4CCN(C5CCC5)CC4)nc3CC2)cc1 [Compound 268, 4-{[2-(4-cyclobutylpiperazin-1-yl)-5,6,8,9-tetrahydro-7H-pyrimido[4,5-d]azepin-7-yl]carbonyl}benzonitrile] | ≥ 90 |
| O=C(c1ccc(C(F)(F)F)cc1)N1CCc2cnc(N3CCN(C4CCC4)CC3)nc2CC1 [Compound 269, 2-(4-cyclobutylpiperazin-1-yl)-7-[4-(trifluoromethyl)benzoyl]-6,7,8,9-tetrahydro-5H-pyrimido[4,5-d]azepine] | ≥ 90 |
| COc1nc(N2CCN(C3CCC3)CC2)nc2c1CCN(C(=O)c1ccccc1)CC2 [Compound 270, 7-benzoyl-2-(4-cyclobutylpiperazin-1-yl)-4-methoxy-6,7,8,9-tetrahydro-5H-pyrimido[4,5-d]azepine] | ≥ 90 |
| c1nc2c(c(N3CCN(C4CCC4)CC3)n1)CCN(CC1CCOCC1)CC2 [Compound 271, 4-(4-cyclobutylpiperazin-1-yl)-7-(tetrahydro-2H-pyran-4-ylmethyl)-6,7,8,9-tetrahydro-5H-pyrimido[4,5-d]azepine] | ≥ 90 |
